For the series, the system named is Wister rats. Briefly: Liver fibrosis rat model: biochemical functional indexes of cardiac blood. In kind it is in vivo. The note with it: 200 mg/kg TAA i.p. once every three days for 60 days, cardiac blood 4 days after last injection. As to the method:
200 mg/kg of thioacetamide (TAA) was intraperitoneally injected to 8-week-old male Wister rats (n=35) once every three days for 60 days (i.e., 20 injections in total) to obtain a liver fibrosis rat model (hereinafter referred to as the “TAA group” rat). Additionally, rats that injected with equal volume of normal saline but not TAA were served as a “control group” (n=12). At 4 days after the last injection, four rats in the “control group” and three rats in the “TAA group” were anesthetized with ether and analyzed by the following experiments.
The cardiac blood of the “control group” and “TAA group” rats was collected and measured by a biochemical analyzer (Roche, Integra 800) to analyze the biochemical functional indexes, and thereby, evaluating the extent of hepatic damage. The biochemical functional indexes include the expression level of glutamate oxaloacetate transaminase (GOT), the expression level of glutamate pyruvate transaminase (GPT), the expression level of albumin, the expression level of total bilirubin, and prothrombin time.

In turn, `CC(=N)S` [TAA, thioacetamide] showed an Albumin of 2.8 ± 0.4 g/dL, a GOT of 546 ± 48 Units/L, a GPT of 138 ± 47 Units/L and a Prothrombin time of 16.4 ± 3.0 s. For the same compound, the Total bilirubin was determined as 0.049 ± 0.009 mg/dL.

Source of the values: patent US11020358B2, “Method for the anti-senescence of and/or rejuvenating stem cells” (GWO XI STEM CELL APPLIED TECHNOLOGY CO., LTD., priority 2014, dated 2021).
